Measured values taken from the supplement of paper PMC7600603.
Blank lines part the entries; values can stand above or below the compound they belong to.

Key:
DLD1 NRF2-GOF [1] = conditions: 72 h; CellTiter-Glo viability
Method in brief: (§1)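 In 384-well plates, library compounds were applied at 5 concentrations spanning a 10,000-fold range to isogenic DLD1 colorectal cancer cells, NRF2 wild-type or CRISPR gain-of-function, maintained in DMEM with 10% FBS. A Pherastar FS reader recorded CellTiter-Glo signal at 72 h, with normalisation to vehicle wells and 100-μM positive-control wells. Curves were fitted with a four-parameter logistic model. EC50 and drug sensitivity score, a normalised area under the curve, came from those curves.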

DLD1 NRF2-GOF [2] = test: TC50 cytotoxicity; higher = less toxic; conditions: 72 h; CellTox Green cytotoxicity
Method in brief: (§2)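 TC50 and drug sensitivity score, a normalised area under the curve, were derived by logistic dose-response fits of cytotoxicity. The cells were an isogenic DLD1 colorectal cancer pair, NRF2 wild-type or CRISPR-edited, kept in DMEM with 10% FBS. Compounds were tested in 384-well plates at 5 concentrations across a 10,000-fold range for 72 h. Readings with CellTox Green on a Pherastar FS reader were normalised to vehicle wells and 100-μM positive-control wells.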

DLD1 NRF2-WT [3] = test: TC50 cytotoxicity; higher = less toxic; conditions: 72 h; CellTox Green cytotoxicity
Method in brief: as §2

DLD1 NRF2-GOF [4] = test: drug sensitivity score (DSS) cytotoxicity (DSS score); higher = more toxic; extreme values may be limits of the assay; conditions: 72 h; CellTox Green cytotoxicity
Method in brief: as §2

DLD1 NRF2-WT [5] = test: as above; conditions: 72 h; CellTox Green cytotoxicity
Method in brief: as §2

DLD1 NRF2-GOF [6] = test: drug sensitivity score (DSS) viability (DSS score); higher = more sensitive; extreme values may be limits of the assay; conditions: 72 h; CellTiter-Glo viability
Method in brief: as §1

DLD1 NRF2-WT [7] = test: as above; conditions: 72 h; CellTiter-Glo viability
Method in brief: as §1

DLD1 NRF2-WT [8] = conditions: 72 h; CellTiter-Glo viability
Method in brief: as §1

EC50 viability (DLD1 NRF2-GOF [1]): 1070 nM
Structure (SMILES): Nc1cc(F)ccc1NC(=O)/C=C/c1cnn(C/C=C/c2ccccc2)c1 [RGFP966]
TC50 cytotoxicity (DLD1 NRF2-GOF [2]): > 10000 nM
TC50 cytotoxicity (DLD1 NRF2-WT [3]): > 10000 nM
drug sensitivity score (DLD1 NRF2-GOF [4]): 0
drug sensitivity score (DLD1 NRF2-WT [5]): 0
drug sensitivity score (DLD1 NRF2-GOF [6]): 3.7
drug sensitivity score (DLD1 NRF2-WT [7]): 3.9

EC50 viability (DLD1 NRF2-GOF [1]): > 10000 nM
Structure (SMILES): COc1cc2c(NC3CCN(C(C)C)CC3)nc(C3CCCCC3)nc2cc1OCCCN1CCCC1 [UNC0638]
TC50 cytotoxicity (DLD1 NRF2-GOF [2]): > 10000 nM
TC50 cytotoxicity (DLD1 NRF2-WT [3]): > 10000 nM
drug sensitivity score (DLD1 NRF2-GOF [4]): 0
drug sensitivity score (DLD1 NRF2-WT [5]): 0
drug sensitivity score (DLD1 NRF2-GOF [6]): 0.2
drug sensitivity score (DLD1 NRF2-WT [7]): 2.4

EC50 viability (DLD1 NRF2-GOF [1]): > 10000 nM
Structure (SMILES): O=C1CCC(N2C(=O)c3ccccc3C2=O)C(=O)N1 (stereo unspecified) [Thalidomide]
TC50 cytotoxicity (DLD1 NRF2-GOF [2]): > 10000 nM
TC50 cytotoxicity (DLD1 NRF2-WT [3]): > 10000 nM
drug sensitivity score (DLD1 NRF2-GOF [4]): 0
drug sensitivity score (DLD1 NRF2-WT [5]): 0
drug sensitivity score (DLD1 NRF2-GOF [6]): 0.7

EC50 viability (DLD1 NRF2-GOF [1]): 58.2 nM
Structure (SMILES): CC(=O)Nc1ccc(C(=O)Nc2ccccc2N)cc1 [Tacedinaline]
TC50 cytotoxicity (DLD1 NRF2-GOF [2]): > 1000 nM
TC50 cytotoxicity (DLD1 NRF2-WT [3]): > 1000 nM
drug sensitivity score (DLD1 NRF2-GOF [4]): 0
drug sensitivity score (DLD1 NRF2-WT [5]): 0
drug sensitivity score (DLD1 NRF2-GOF [6]): 4
drug sensitivity score (DLD1 NRF2-WT [7]): 1.9

EC50 viability (DLD1 NRF2-GOF [1]): 571 nM
Structure (SMILES): CCC(C)(C)C(=O)O[C@H]1C[C@@H](C)C=C2C=C[C@H](C)[C@H](CC[C@@H]3C[C@@H](O)CC(=O)O3)[C@H]21 [Simvastatin]
drug sensitivity score (DLD1 NRF2-GOF [6]): 3.8
drug sensitivity score (DLD1 NRF2-WT [7]): 0

EC50 viability (DLD1 NRF2-GOF [1]): > 10000 nM
Structure (SMILES): CC(C)C[C@H](NC(=O)[C@@H](COC(C)(C)C)NC(=O)[C@H](Cc1ccc(O)cc1)NC(=O)[C@H](CO)NC(=O)[C@H](Cc1c[nH]c2ccccc12)NC(=O)[C@H](Cc1cnc[nH]1)NC(=O)[C@@H]1CCC(=O)N1)C(=O)N[C@@H](CCCNC(=N)N)C(=O)N1CCC[C@H]1C(=O)NNC(N)=O [Goserelin]
TC50 cytotoxicity (DLD1 NRF2-GOF [2]): > 10000 nM
TC50 cytotoxicity (DLD1 NRF2-WT [3]): > 10000 nM
drug sensitivity score (DLD1 NRF2-GOF [4]): 0
drug sensitivity score (DLD1 NRF2-WT [5]): 0
drug sensitivity score (DLD1 NRF2-GOF [6]): 0
drug sensitivity score (DLD1 NRF2-WT [7]): 4.5

EC50 viability (DLD1 NRF2-GOF [1]): 1400 nM
Structure (SMILES): O=C(c1cc(Cc2n[nH]c(=O)c3ccccc23)ccc1F)N1CCN(C(=O)C2CC2)CC1 [Olaparib]
TC50 cytotoxicity (DLD1 NRF2-GOF [2]): > 10000 nM
TC50 cytotoxicity (DLD1 NRF2-WT [3]): > 10000 nM
drug sensitivity score (DLD1 NRF2-GOF [4]): 0
drug sensitivity score (DLD1 NRF2-WT [5]): 0
drug sensitivity score (DLD1 NRF2-GOF [6]): 2.6

EC50 viability (DLD1 NRF2-GOF [1]): 6 nM
Structure (SMILES): C/C=C1\NC(=O)[C@H]2CSSCC/C=C/[C@H](CC(=O)N[C@H](C(C)C)C(=O)N2)OC(=O)[C@H](C(C)C)NC1=O [Romidepsin]
TC50 cytotoxicity (DLD1 NRF2-GOF [2]): 122 nM
TC50 cytotoxicity (DLD1 NRF2-WT [3]): 105 nM
drug sensitivity score (DLD1 NRF2-GOF [4]): 2.9
drug sensitivity score (DLD1 NRF2-WT [5]): 9.6
drug sensitivity score (DLD1 NRF2-GOF [6]): 23.4

EC50 viability (DLD1 NRF2-GOF [1]): > 10000 nM
Structure (SMILES): Cn1cnc2c(F)c(Nc3ccc(Br)cc3Cl)c(C(=O)NOCCO)cc21 [Selumetinib]
TC50 cytotoxicity (DLD1 NRF2-GOF [2]): > 10000 nM
TC50 cytotoxicity (DLD1 NRF2-WT [3]): > 10000 nM
drug sensitivity score (DLD1 NRF2-GOF [4]): 0
drug sensitivity score (DLD1 NRF2-WT [5]): 0
drug sensitivity score (DLD1 NRF2-GOF [6]): 0
drug sensitivity score (DLD1 NRF2-WT [7]): 2

EC50 viability (DLD1 NRF2-GOF [1]): 1710 nM
Structure (SMILES): O=C(CCCCCCC(=O)Nc1ccc([C@H]2O[C@@H](CSc3nc(-c4ccccc4)c(-c4ccccc4)o3)C[C@@H](c3ccc(CO)cc3)O2)cc1)NO [Tubacin]
TC50 cytotoxicity (DLD1 NRF2-GOF [2]): > 10000 nM
TC50 cytotoxicity (DLD1 NRF2-WT [3]): > 10000 nM
drug sensitivity score (DLD1 NRF2-GOF [4]): 0
drug sensitivity score (DLD1 NRF2-WT [5]): 0
drug sensitivity score (DLD1 NRF2-GOF [6]): 3
drug sensitivity score (DLD1 NRF2-WT [7]): 2.7

EC50 viability (DLD1 NRF2-GOF [1]): 3550 nM
Structure (SMILES): O=C(CCCCCCC(=O)Nc1ccccc1)NO [Vorinostat]
TC50 cytotoxicity (DLD1 NRF2-GOF [2]): > 10000 nM
TC50 cytotoxicity (DLD1 NRF2-WT [3]): 2240 nM
drug sensitivity score (DLD1 NRF2-GOF [4]): 0
drug sensitivity score (DLD1 NRF2-WT [5]): 2.2
drug sensitivity score (DLD1 NRF2-GOF [6]): 3.5

EC50 viability (DLD1 NRF2-GOF [1]): 44.3 nM
Structure (SMILES): CC(C)Cn1cnc2c(N)nc3ccccc3c21 [Imiquimod]
TC50 cytotoxicity (DLD1 NRF2-GOF [2]): > 2500 nM
TC50 cytotoxicity (DLD1 NRF2-WT [3]): > 2500 nM
drug sensitivity score (DLD1 NRF2-GOF [4]): 0
drug sensitivity score (DLD1 NRF2-WT [5]): 0
drug sensitivity score (DLD1 NRF2-GOF [6]): 3.9

The next lines start with the compound.

Structure (SMILES): COc1cccc2c1C(=O)c1c(O)c3c(c(O)c1C2=O)C[C@@](O)(C(C)=O)C[C@@H]3O[C@H]1C[C@H](N)[C@H](O)[C@H](C)O1 [Daunorubicin]
EC50 viability (DLD1 NRF2-GOF [1]): 165 nM
EC50 viability (DLD1 NRF2-WT [8]): 156 nM
drug sensitivity score (DLD1 NRF2-GOF [6]): 7.2
drug sensitivity score (DLD1 NRF2-WT [7]): 8.3

Structure (SMILES): CC1(C)C(C(=O)Nc2ccc(S(=O)(=O)c3ccc(NC(=O)C4C(C)(C)C4(C)C)cc3)cc2)C1(C)C [BRD7116]
EC50 viability (DLD1 NRF2-GOF [1]): 48.2 nM
drug sensitivity score (DLD1 NRF2-GOF [6]): 7.6
drug sensitivity score (DLD1 NRF2-WT [7]): 5.5

Structure (SMILES): COc1cccc2c1C(=O)c1c(O)c3c(c(O)c1C2=O)C[C@@](O)(C(=O)CO)C[C@@H]3O[C@H]1C[C@H](N)[C@@H](O)[C@H](C)O1 [Epirubicin]
EC50 viability (DLD1 NRF2-GOF [1]): 153 nM
TC50 cytotoxicity (DLD1 NRF2-GOF [2]): > 1000 nM
TC50 cytotoxicity (DLD1 NRF2-WT [3]): > 1000 nM
drug sensitivity score (DLD1 NRF2-GOF [4]): 0
drug sensitivity score (DLD1 NRF2-WT [5]): 0
drug sensitivity score (DLD1 NRF2-GOF [6]): 8.6

Structure (SMILES): O=C(NOC[C@H](O)CO)c1ccc(F)c(F)c1Nc1ccc(I)cc1F
EC50 viability (DLD1 NRF2-GOF [1]): > 1000 nM
TC50 cytotoxicity (DLD1 NRF2-GOF [2]): > 1000 nM
TC50 cytotoxicity (DLD1 NRF2-WT [3]): > 1000 nM
drug sensitivity score (DLD1 NRF2-GOF [4]): 0
drug sensitivity score (DLD1 NRF2-WT [5]): 0
drug sensitivity score (DLD1 NRF2-GOF [6]): 0.1
drug sensitivity score (DLD1 NRF2-WT [7]): 2

Structure (SMILES): CN1CCN(c2ccc3nc(-c4c(N)c5c(F)cccc5[nH]c4=O)[nH]c3c2)CC1 [Dovitinib]
EC50 viability (DLD1 NRF2-GOF [1]): > 10000 nM
EC50 viability (DLD1 NRF2-WT [8]): > 10000 nM
drug sensitivity score (DLD1 NRF2-GOF [6]): 0
drug sensitivity score (DLD1 NRF2-WT [7]): 1.6

Structure (SMILES): NCC(=O)Nc1ccc(-n2nc(C(F)(F)F)cc2-c2ccc3c(ccc4ccccc43)c2)cc1
EC50 viability (DLD1 NRF2-GOF [1]): > 25000 nM
TC50 cytotoxicity (DLD1 NRF2-GOF [2]): > 25000 nM
TC50 cytotoxicity (DLD1 NRF2-WT [3]): > 25000 nM
drug sensitivity score (DLD1 NRF2-GOF [4]): 0
drug sensitivity score (DLD1 NRF2-WT [5]): 0
drug sensitivity score (DLD1 NRF2-GOF [6]): 0
drug sensitivity score (DLD1 NRF2-WT [7]): 0.8

Structure (SMILES): Cc1c(-c2c(-c3ccc(F)o3)sc3ncnc(O[C@H](Cc4ccccc4OCc4ccnn4CC(F)(F)F)C(=O)O)c23)ccc(OCCN2CCN(C)CC2)c1Cl
EC50 viability (DLD1 NRF2-GOF [1]): > 1000 nM
TC50 cytotoxicity (DLD1 NRF2-GOF [2]): > 1000 nM
TC50 cytotoxicity (DLD1 NRF2-WT [3]): > 1000 nM
drug sensitivity score (DLD1 NRF2-GOF [4]): 0
drug sensitivity score (DLD1 NRF2-WT [5]): 0
drug sensitivity score (DLD1 NRF2-GOF [6]): 0
drug sensitivity score (DLD1 NRF2-WT [7]): 3.6

Structure (SMILES): Cc1noc2c1-c1ccccc1C(c1ccc(Cl)cc1)=N[C@H]2CC(N)=O [CPI-0610]
EC50 viability (DLD1 NRF2-GOF [1]): 362 nM
TC50 cytotoxicity (DLD1 NRF2-GOF [2]): > 10000 nM
TC50 cytotoxicity (DLD1 NRF2-WT [3]): > 10000 nM
drug sensitivity score (DLD1 NRF2-GOF [4]): 0
drug sensitivity score (DLD1 NRF2-WT [5]): 0
drug sensitivity score (DLD1 NRF2-GOF [6]): 3.6

Structure (SMILES): CC(C)Oc1ccc(C(=O)N[C@H](CNC(=O)CN(C)C)Cc2ccc(-c3cn4cccc([C@H](C)O)c4n3)cc2)cc1Cl
EC50 viability (DLD1 NRF2-GOF [1]): 182 nM
TC50 cytotoxicity (DLD1 NRF2-GOF [2]): > 10000 nM
TC50 cytotoxicity (DLD1 NRF2-WT [3]): > 10000 nM
drug sensitivity score (DLD1 NRF2-GOF [4]): 0
drug sensitivity score (DLD1 NRF2-WT [5]): 0
drug sensitivity score (DLD1 NRF2-GOF [6]): 10.7

Structure (SMILES): N[C@@H]1CCCN(c2c(/C=C3\SC(=O)NC3=O)cccc2-c2ccccc2)C1 [AZD1208]
EC50 viability (DLD1 NRF2-GOF [1]): > 10000 nM
TC50 cytotoxicity (DLD1 NRF2-GOF [2]): > 10000 nM
TC50 cytotoxicity (DLD1 NRF2-WT [3]): > 10000 nM
drug sensitivity score (DLD1 NRF2-GOF [4]): 0
drug sensitivity score (DLD1 NRF2-WT [5]): 0
drug sensitivity score (DLD1 NRF2-GOF [6]): 7.2
